According to patent US7659310B2, “Methods of enhancing solubility of agents” (Formatech, Inc., priority 2004, dated 2010):
Converted amounts (≈) assume the structure as drawn. “And” between values parts separate entries of the source, which are not always exact repeats. Equal values may be shown once. Read-outs that look alike come from different tables or passages of the source.

Assays:
[1] = Solubilization of compounds in fatty acid / fatty acid salt (soluble, formulation clear); details: for solubility: aqueous with cosolvent or surfactant or cyclodextrin
Description: (§1) Ethanolamine (8 μL) was subsequently added and mixed using a VORTEX®. After mixing, the sample was dispersed in 466 μL of water for injection.
(§2) Ethanolamine (62 μL) was subsequently added and mixed using a VORTEX®. After mixing, the sample was dispersed in 784 μL of water for injection.
(§3) Digoxin (1 mg) was added to 28 μL of oleic acid and mixed using VORTEX. Ethanolamine (6 μL) was subsequently added and mixed using a VORTEX®. After mixing, the sample was dispersed in 966 μL of water for injection.
(§4) Digoxin (1 mg) was added to 1 mL of 0.25 M sodium oleate and mixed using a VORTEX®.
(§5) N-acetylsalicylic acid (18 mg) was added to 31 μL of oleic acid and mixed using a VORTEX®. Ethanolamine (6 μL) was subsequently added and mixed using a VORTEX®. After mixing, the sample was dispersed in 963 μL of water for injection.
(§6) N-acetylsalicylic acid (25 mg) was added to 1 mL of 0.25 M sodium oleate and mixed using a VORTEX®.
(§7) Paclitaxel (18 mg) was added to 31 μL of oleic acid and mixed using a VORTEX®. Ethanolamine (6 μL) was subsequently added and mixed using a VORTEX®. After mixing, the sample was dispersed in 963 μL of water for injection.
(§8) Paclitaxel (5.6 mg) was added to 1 mL of 0.1 M sodium oleate and mixed using a VORTEX®.
(§9) Paclitaxel (2 mg) was added to 1 mL of 1 M sodium caprylate and mixed by a VORTEX®.
Paclitaxel (7.2 mg) was added to 1 mL of 1 M sodium linoleate and mixed using a VORTEX®.
For example, β-Lapachone was dissolved (25 mg/mL) in ethanol:oleic acid (EtOH:OA) at volume to volume ratios of 70%:30%, 75%:25%, or 80%:20% EtOH:OA.
In another example, β-Lapachone was dissolved (50 mg/mL) in dimethylsulfoxide:oleic acid (DMSO:OA) at volume to volume ratios of 60%:40, 70%:30% DMSO:OA or in DMSO:EtOH:OA (30%:30%:40% v/v).
For example, Propofol (1% v/v or 10 mg/mL) was dissolved in 100 mM sodium oleate in 5% (w/v) dextrose in water for injection. The resulting solution containing 1% Propofol was lyophilized.
For example, Paclitaxel (5 mg/mL) was dissolved in 100 mM sodium oleate in 100% ethanol. Ethanol was completely evaporated using rotary evaporation at 20° C. The Paclitaxel-sodium oleate was reconstituted with WFI or 2.5% glycerol to provide 5 mg/mL, 10 mg/mL, or 20 mg/mL concentration of Paclitaxel.

[2] = Stability of the solubilized compound (remains soluble) by reverse phase HPLC
Description: as §1, §2, §3, §4, §5, §6, §7, §8, §9
Paclitaxel (7.2 mg) was added to 1 mL of 1 M sodium linoleate and mixed using a VORTEX®. […]
For example, Propofol (1% v/v or 10 mg/mL) was dissolved in 100 mM sodium oleate in 5% (w/v) dextrose in water for injection. The resulting solution containing 1% Propofol was lyophilized. […]

SMILES: C[C@H]1O[C@@H](O[C@H]2[C@@H](O)C[C@H](O[C@H]3[C@@H](O)C[C@H](O[C@H]4CC[C@@]5(C)[C@H](CC[C@@H]6[C@@H]5C[C@@H](O)[C@]5(C)[C@@H](C7=CC(=O)OC7)CC[C@]65O)C4)O[C@@H]3C)O[C@@H]2C)C[C@H](O)[C@@H]1O [Digoxin]
- solubility ([1]; concentration at which soluble and formulation clear, 0.25 M sodium oleate): 1000 µg/mL
- solubility ([1]; concentration at which soluble and formulation clear, oleic acid, then ethanolamine, dispersed in water for injection): 1000 µg/mL
- time remained soluble, formulation stable upon dilution ([2]; 0.25 M sodium oleate, dilution 1:10 in saline, RP-HPLC): up to 24 hours
- time remained soluble, formulation stable upon dilution ([2]; oleic acid/ethanolamine formulation, dilution 1:4 in saline, RP-HPLC): up to 24 hours

SMILES: CC(=O)Oc1ccccc1C(=O)O [N-acetylsalicylic acid]
- concentration at which soluble and formulation clear [1]: 25000 µg/mL
- solubility ([1]; concentration at which soluble and formulation clear): 18000 µg/mL (≈ 99.9 mM)
- time remained soluble, formulation stable upon dilution [2]: up to 24 hours

SMILES: CC(=O)O[C@H]1C(=O)[C@@]2(C)[C@H]([C@H](OC(=O)c3ccccc3)[C@]3(O)C[C@H](OC(=O)[C@H](O)[C@@H](NC(=O)c4ccccc4)c4ccccc4)C(C)=C1C3(C)C)[C@]1(OC(C)=O)CO[C@@H]1C[C@@H]2O [Paclitaxel]
- fold greater than the solubility in water [1]: 630-850 fold
- concentration dissolved ([1]; 100 mM sodium oleate in 100% ethanol): 5000 µg/mL
- solubility ([1]; solubilization): 6300 to 8500 µg/mL (≈ 7.38 to 9.95 mM)
- time remained soluble, formulation stable upon dilution [2]: up to 24 hours

SMILES: CC(C)c1cccc(C(C)C)c1O [Propofol]
- concentration dissolved ([1]; 100 mM sodium oleate in 5% (w/v) dextrose in water for injection (1% v/v)): 10000 µg/mL
- stability of reconstituted lyophilized compound ([2]; 1% in 100 mM sodium oleate/D5W, lyophilized and reconstituted, RP-HPLC): stable without degradation or impurities

SMILES: CC1(C)CCC2=C(O1)c1ccccc1C(=O)C2=O [β-Lapachone]
- final concentration of the dispersed compound ([1]; OA-DMSO/EtOH mixture dispersed in equimolar sodium hydroxide solution): 1.5 mg/mL and 2.0 mg/mL and 2.5 mg/mL
- concentration dissolved ([1]; in DMSO:OA 60%:40, 70%:30% or DMSO:EtOH:OA 30%:30%:40% v/v): 50000 µg/mL
- concentration dissolved ([1]; in ethanol:oleic acid 70%:30%, 75%:25% or 80%:20% v/v): 25000 µg/mL
